In brackets after ≈: the same amount, converted by molar mass. Where two headings read alike, the source gives them in different places.
Key:
[1] = system: Acinetobacter baumanii/haemolyticus: Multidrug-resistant clinical isolate (AB-3167); assay: MIC determination (CLSI), AB-3167; type: cell-based; conditions: for MIC: Acinetobacter baumannii, read-out: AB-3167 (MIC); for AB-3167 MIC: Acinetobacter baumanii/haemolyticus multidrug-resistant clinical isolate AB-3167
Procedure, shortened: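 Multidrug-resistant clinical isolate AB-3167 (A. baumannii/haemolyticus) tested for minimum inhibitory concentration following CLSI dilution susceptibility standards M7-A7 and M100-S18.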

[2] = system: Klebsiella pneumoniae: Ciprofloxacin-resistant isolate, ESBL, clinical isolate (KP-3700); assay: MIC determination (CLSI), KP-3700; type: cell-based
Procedure, shortened: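 Strain KP-3700, a clinical isolate producing extended-spectrum β-lactamases and resistant to ciprofloxacin, was tested. Minimum inhibitory concentrations determined via CLSI dilution methodology (M7-A7; M100-S18).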

[3] = system: Pseudomonas aeruginosa UI-18: Wild-type (PA-7); assay: MIC determination (CLSI), PA-7; type: cell-based; conditions: for MIC: Pseudomonas aeruginosa, read-out: PA-7 (MIC); for PA-7 MIC: Pseudomonas aeruginosa UI-18 wild-type PA-7
Procedure, shortened: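 Wild-type P. aeruginosa UI-18 tested for minimum inhibitory concentration. Broth/agar dilution following CLSI standards (M7-A7, M100-S18).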

[4] = target: Pseudomonas aeruginosa LpxC enzyme (Pseudomonas aeruginosa (strain ATCC 15692 / DSM 22644 / CIP 104116 / JCM 14847 / LMG 12228 / 1C / PRS 101 / PAO1), UniProt P47205); assay: IC50 Assay, LpxC Enzyme from P. aeruginosa (PA LpxC Enzyme IC50); type: biochemical; conditions: read-out: PA LpxC enzyeme IC50
Procedure: In order to assess the compounds biological activity, selected in-vitro assays were conducted on selected compounds. One of the assays measured the compounds ability to disrupt the synthesis of lipopolysaccharide, LPS, which is a component of the outer membrane of Gram-negative bacteria. Disruption of this synthesis is lethal to the bacteria. The assay determined the compound's ability to inhibit LpxC, which is the first enzyme in the biosynthetic pathway for LPS (measured as IC50). Additionally, MICs (minimal inhibitory concentrations) were determined for several bacteria. The specific protocols are described below:
A) IC50 Assay, LpxC Enzyme from P. aeruginosa (Labled as PA LpxC Enzyme IC50
At the end of 1 hour, 5 ul of 1N HCl was added to stop the enzyme reaction; the plates were centrifuged, and then processed with the BioTrove Rapidfire HTMS Mass Spectrometry System. A no-enzyme control was used in calculating the IC50 values from the percent conversion values.

[5] = system: Escherichia coli EC-1: VOGEL, mouse virulent; assay: MIC determination (CLSI), EC-1; type: cell-based; conditions: for MIC: Escherichia coli, read-out: EC-1: (MIC); for EC-1 MIC: Escherichia coli EC-1 VOGEL, mouse virulent
Procedure, shortened: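 E. coli Vogel, a mouse-virulent strain (EC-1), was tested. MICs were set by dilution susceptibility testing per CLSI standards M7-A7/M100-S18.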

| Structure (SMILES) | MIC ([1]; Table 1, MIC) [µg/mL] | KP-3700 MIC [2] | MIC ([3]; Table 1, MIC) [µg/mL] | IC50 ([4]; Table 1) [nM] | MIC [5] [µg/mL] | MIC [1] [µg/mL] | KP-3700 MIC ([2]; Table 1, MIC) | MIC [3] [µg/mL] | AB-3167 MIC [1] | PA-7 MIC [3] [mg/L] | IC50 ([4]; P. aeruginosa LpxC enzyme) [nM] | EC-1 MIC [5] [mg/L] |
| --- | --- | --- | --- | --- | --- | --- | --- | --- | --- | --- | --- | --- |
| Cc1cc(-c2ccccc2)ccc1CCC(C)(C(=O)NO)S(C)(=O)=O (stereo not shown) [Example 1, N-Hydroxy-2-methyl-4-(3-methylbiphenyl-4-yl)-2(methylsulfonyl)butanamide] | 16 (≈ 44.3 µM) | 8 mg/L | 4 (≈ 11.1 µM) | 1.68 | 2 (≈ 5.53 µM) |  |  |  |  |  |  |  |
| CC(CCc1ccc(-c2ccccc2)cc1F)(C(=O)NO)S(C)(=O)=O (stereo not shown) [Example 2, 4-(3-Fluorobiphenyl-4-yl)-N-hydroxy-2-methyl-2-(methylsulfonyl)butanamide] | 16 (≈ 43.8 µM) | 4 mg/L | 1 (≈ 2.74 µM) | 0.26 | 1 (≈ 2.74 µM) |  |  |  |  |  |  |  |
| C[C@@](CCc1ccc(-c2ccc(OP(=O)(O)O)cc2)cc1)(C(=O)NO)S(C)(=O)=O [Example 6, 4′-[(3R)-4-(Hydroxyamino)-3-methyl-3-(methylsulfonyl)-4-oxobutyl]biphenyl-4-yl dihydrogen phosphate] |  |  |  | 88.1 | ≥ 64 | ≥ 64 | ≧64 mg/L | ≥ 64 |  |  |  |  |
| CC(CCc1ccc(-c2ccc(-c3cc(CO)no3)cc2)cc1)(C(=O)NO)S(C)(=O)=O (stereo not shown) [Example 9, N-Hydroxy-4-{4′-[3-(hydroxymethyl)isoxazol-5-yl]biphenyl-4-yl}-2-methyl-2-(methylsulfonyl)butanamide] | 32 (≈ 72 µM) | 4 mg/L | 2 (≈ 4.5 µM) | 0.32 | 0.125 (≈ 0.281 µM) |  |  |  |  |  |  |  |
| CC(CCc1ccc(Sc2ccccc2)cc1)(C(=O)NO)S(C)(=O)=O (stereo not shown) [Example 12, N-Hydroxy-2-methyl-2-(methylsulfonyl)-4-[4-(phenylthio)phenyl]butanamide] | 8 (≈ 21.1 µM) | 32 mg/L | 8 (≈ 21.1 µM) | 11.9 | 8 (≈ 21.1 µM) |  |  |  |  |  |  |  |
| CC(CCc1ccc(C2=CCCCCC2)cc1)(C(=O)NO)S(C)(=O)=O (stereo not shown) [Example 13, 4-(4-Cyclohept-1-en-1-ylphenyl)-N-hydroxy-2-methyl-2-(methylsulfonyl)butanamide] | 0.5 (≈ 1.37 µM) | 4 mg/L | 1 (≈ 2.74 µM) | 0.29 | 2 (≈ 5.47 µM) |  |  |  |  |  |  |  |
| CC(=O)NC[C@@H]1CN(c2ccc(-c3ccc(CC[C@](C)(C(=O)NO)S(C)(=O)=O)cc3)c(F)c2)C(=O)O1 [Example 14, (2R)-4-{4′-[(5R)-5-(Acetamidomethyl)-2-oxo-1,3-oxazolidin-3-yl]-2′-fluorobiphenyl-4-yl}-N-hydroxy-2-methyl-2-(methylsulfonyl)butanamide] | ≥ 64 | ≧64 mg/L | 32 (≈ 61.4 µM) | 1.48 | 16 (≈ 30.7 µM) |  |  |  |  |  |  |  |
| CC(CCc1ccc(-c2ccc(F)cc2)c(O)c1)(C(=O)NO)S(C)(=O)=O (stereo not shown) [Example 21, 4-(4′-Fluoro-2-hydroxybiphenyl-4-yl)-N-hydroxy-2-methyl-2-(methylsulfonyl)butanamide] | ≥ 64 | ≧64 mg/L | 16 (≈ 41.9 µM) | 15.4 | 16 (≈ 41.9 µM) |  |  |  |  |  |  |  |
| C[C@@](CCc1ccc(-c2ccc(O)cc2)cc1)(C(=O)NO)S(C)(=O)=O [Example 23, (2R)—N-hydroxy-4-(4′-hydroxybiphenyl-4-yl)-2-methyl-2-(methylsulfonyl)butanamide] | ≥ 64 | 8 mg/L | 2 (≈ 5.5 µM) | 0.18 | 4 (≈ 11 µM) |  |  |  |  |  |  |  |
| CC(CCc1ccc(COc2ccccc2)cc1)(C(=O)NO)S(C)(=O)=O (stereo not shown) [Example 25, N-Hydroxy-2-methyl-2-(methylsulfonyl)-4-[4-(phenoxymethyl)phenyl]butanamide] | 16 (≈ 42.4 µM) | 16 mg/L | 8 (≈ 21.2 µM) | 2.38 | 4 (≈ 10.6 µM) |  |  |  |  |  |  |  |
| CC(CCc1ccc(-c2ccc(CCO)cc2)cc1)(C(=O)NO)S(C)(=O)=O (stereo not shown) [Example 34] |  | 8 mg/L |  |  |  |  |  |  | ≧64 mg/L | 4 | 0.331 | 4 |
| CC(CCc1ccc(-c2cc(F)ccc2F)cc1)(C(=O)NO)S(C)(=O)=O (stereo not shown) [Example 38] |  | 32 mg/L |  |  |  |  |  |  | 16 mg/L | 1 | 0.752 | 2 |
| CC(CCc1ccc(-c2cccc(F)c2)cc1)(C(=O)NO)S(C)(=O)=O (stereo not shown) [Example 42] |  | 4 mg/L |  |  |  |  |  |  | ≧64 mg/L | 0.5 | 0.335 | 2 |
| CC(CCc1ccc(-c2ccc(Cl)cc2)cc1)(C(=O)NO)S(C)(=O)=O (stereo not shown) [Example 44] |  | 1 mg/L |  |  |  |  |  |  | 16 mg/L | 0.5 | 0.0669 | 0.5 |
| CC(CCc1ccc(-c2ccc(CCCO)cc2)cc1)(C(=O)NO)S(C)(=O)=O (stereo not shown) [Example 47] |  | 2 mg/L |  |  |  |  |  |  | ≧64 mg/L | 1 | 0.132 | 0.5 |
| CC(CCc1ccc(-c2ccccc2F)cc1)(C(=O)NO)S(C)(=O)=O (stereo not shown) [Example 50] |  | 8 mg/L |  |  |  |  |  |  | 16 mg/L | 0.5 | 0.731 | 2 |
| CSc1cccc(-c2ccc(CCC(C)(C(=O)NO)S(C)(=O)=O)cc2)c1 (stereo not shown) [Example 56] |  | 4 mg/L |  |  |  |  |  |  | 8 mg/L | 2 | 0.417 | 2 |
| CC(CCc1ccc(-c2ccc3[nH]ccc3c2)cc1)(C(=O)NO)S(C)(=O)=O (stereo not shown) [Example 57] |  | 8 mg/L |  |  |  |  |  |  | 8 mg/L | 0.5 | 0.295 | 0.5 |
| CC(CCc1ccc(-c2cccc(Cl)c2Cl)cc1)(C(=O)NO)S(C)(=O)=O (stereo not shown) [Example 59] |  | 2 mg/L |  |  |  |  |  |  | 2 mg/L | 2 | 0.213 | 0.5 |
| CC(CCc1ccc(-c2cccc(F)c2F)cc1)(C(=O)NO)S(C)(=O)=O (stereo not shown) [Example 62] |  | 16 mg/L |  |  |  |  |  |  | 16 mg/L | 0.25 | 0.185 | 0.5 |
| CC(C)Cc1ccc(-c2ccc(CCC(C)(C(=O)NO)S(C)(=O)=O)cc2)cc1 (stereo not shown) [Example 63] |  | 4 mg/L |  |  |  |  |  |  | 8 mg/L | 16 | 0.356 | 2 |
| CC(CCc1ccc(-c2cccc(C#N)c2)cc1)(C(=O)NO)S(C)(=O)=O (stereo not shown) [Example 64] |  | 8 mg/L |  |  |  |  |  |  | ≧64 mg/L | 2 | 0.739 | 4 |
| CC(CCc1ccc(-c2ccsc2)cc1)(C(=O)NO)S(C)(=O)=O (stereo not shown) [Example 77] |  | 16 mg/L |  |  |  |  |  |  | ≧64 mg/L | 2 | 0.991 | 8 |
